Measurements from patent US11440923B2, “Substituted macrocyclic indole derivatives” (Bayer Aktiengesellschaft, priority 2017, dated 2022).
pIC50: −log10 of the molar value. Counter-ions that a name gives are not always drawn. Like-named read-outs stand apart in the source and are kept apart here.

Assays:
Assay type in all cases: cell-based
[1] = biological target: MCL1 protein / biotinylated BIM BH3 peptide in RKO cells (Homo sapiens (Human), UniProt Q07820); assay: PIxEL: protein-protein interaction in permeabilized cells by ELISA (Assay 5); conditions: PIxEL IC50 (median)
Description: PIxEL: Protein-Protein Interaction in Permeabilized Cells by ELISA
Most MCL1 protein molecules are localized at the mitochondria outer membrane and sequester pro-apoptotic proteins through binding of their BCL2 homology domain 3 (BH3 domain). MEB buffer (150 mM mannitol, 10 mM HEPES pH 7.5, 50 mM KCl, 20 μM EDTA, 20 μM EGTA, 5 mM potassium succinate, 0.1% protease-free BSA (SIGMA) with low dose digitonin (0.002%) permeabilizes plasma membrane while leaves live mitochondria, where MCL1 maintains its native localization and conformation. Unlike biophysical assays (e.g. TR-FRET) that use truncated recombinant MCL1 protein, this assay uses full length endogenous MCL1 protein at mitochondria outer membrane. It measures the interaction between MCL1 protein and biotinylated BIM BH3 peptide. Compounds can compete with BIM BH3 peptide to bind to MCL1 protein.
On day 1, RKO colon cancer cell line cells were plated at 0.8 million cells/ml, 100 μl/well in 96-well flat bottom TC plates (Corning). MCL1 antibody (Santa Cruz sc-12756) were diluted at 200 fold (final concentration 1 μg/ml) in carbonate buffer (Thermo Fisher Scientific, pH 9.6), and 50 μl of diluted antibody was added to each well of high bind ELISA plates ([…]). Each plate was tapped to make sure liquid covering entire bottom of wells and incubate at 37° C. overnight.
On the second day, MCL1 antibody was washed from ELISA plate. 250 μl Odyssey® Blocking Buffer (PBS) (Li-Cor) was added to each well, incubated at room temperature for at least 1 hour, then washed once with 250 μl 1×PBST. Plates with RKO cells were gently washed once with 100 μl/well PBS, once with 100 μl/well MEB buffer without digitonin, then 100 μl of MEB buffer with 0.002% digitonin was gently added to each well. Compounds were added with HP Tecan compound dispenser in 3-fold dilution series, highest dose 30 μM, 10-dose per compound in quadruplicates. Biotin-BIM peptide (synthesized by 21st Century) was added with HP Tecan compound dispenser at 0.2 μM immediately after the addition of compounds. Plates were rocked for 1 hour at room temperature. Then MEB buffer was aspirated and 50 μl of CHAPS buffer (50 mM Tris-Cl, pH 7.4, 150 mM NaCl, 1% CHAPS, 1 mM EDTA, 1 mM EGTA, cOmplete protease inhibitors (Roche), PhosSTOP (Roche)) was added to each well. Plates were rocked for 1 hour at 4° C., then 45 μl cell lysate from each well were transferred to ELISA plates coated with MCL1 antibody. Plates were incubated overnight in the cold room with rocking.
On the third day, ELISA plates were washed once with 250 μl 1×PBST. Streptavidin-poly-HRP (Thermo Fisher Scientific) was diluted to 20 ng/ml in Odyssey blocking buffer plus 0.05% Triton-100, and 100 μl was added to each well of the ELISA plate. Plates were incubated at room temperature for 1 hour with rocking, then washed with 100 μl 1×PBST for 3 times. Each SuperSignal ELISA Femto Maximum Sensitivity substrate was added to a 50-ml tube and mixed, then 100 μl of mixed substrate was added to each well. Plates were shaken for 1 minute then luminescence was measured by Envision plate reader […]. Signal of each well were normalized by no-compound control and no-cell control. IC50 was calculated using Graphic Pad PRISM software.

[2] = system: SUDHL10 cells; assay: Induction of cytotoxicity in SUDHL10 cells (Assay 6); conditions: 5 h, CellTiter-Glo, read-out: Cytotox SUDHL10 IC50 (median)
Procedure, shortened: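 Run alongside apoptosis measurements, this cytotoxicity readout used cells treated with compound for 5 h at 37 °C and quantified ATP-based luminescence with CellTiter-Glo.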

[3] = system: AMO-1 cells; assay: Antiproliferation assay AMO-1 (Assay 7)
Procedure, shortened: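 CTG luminescence readout; cells plated, overnight at 37 °C, then 72 h compound treatment. Time-zero plate read in parallel. IC50 from day 0 and DMSO-normalised signal.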

[4] = Homo sapiens, AMO1, 72 h, 72 h, CellTiter-Glo, read-out: Antiproli AMO-1 IC50 median
[5] = read-out: Antiproli AMO-1 IC50 median, 72 h, CellTiter-Glo
[6] = Homo sapiens, AMO1, 72 h, read-out: Antiproli AMO-1 IC50 median, 72 h, CellTiter-Glo
[7] = 72 h, CellTiter-Glo, read-out: Antiproli AMO-1 IC50 median

MCL1 protein / biotinylated BIM BH3 peptide in RKO cells, sequence (Q07820 whole entry): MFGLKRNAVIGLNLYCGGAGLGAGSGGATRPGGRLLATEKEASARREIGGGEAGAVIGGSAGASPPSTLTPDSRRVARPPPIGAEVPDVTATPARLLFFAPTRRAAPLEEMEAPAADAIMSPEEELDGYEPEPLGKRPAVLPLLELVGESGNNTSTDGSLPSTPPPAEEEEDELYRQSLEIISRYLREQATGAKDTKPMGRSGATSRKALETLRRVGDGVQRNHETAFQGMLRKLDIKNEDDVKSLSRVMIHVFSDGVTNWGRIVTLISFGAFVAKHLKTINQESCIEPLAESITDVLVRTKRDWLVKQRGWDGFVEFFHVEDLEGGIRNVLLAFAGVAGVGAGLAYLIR

## CCc1c2c(nn1C)C(c1ccccc1)OCCCCn1c(C(=O)O)c(CCCOc3cccc4cc(F)ccc34)c3ccc(Cl)c-2c31 (racemic) [Example 59, (rac)-4-chloro-3-ethyl-7-{3-[(6-fluoronaphthalen-1-yl)oxy]propyl}-2-methyl-(15-rac)-phenyl-2,10,11,12,13,15-hexahydropyrazolo[4′,3′:9,10][1,6]oxazacycloundecino[8,7,6-hi]indole-8-carboxylic Acid]
[1]
  pIC50: 6.72
[2]; Homo sapiens, SU-DHL10, 5 h
  pIC50: 6.00
[3]; [4]
  pIC50: 6.12

## CCc1c2c(nn1C)C(C(F)(F)F)OCCCCn1c(C(=O)O)c(CCCOc3cccc4ccccc34)c3ccc(Cl)c-2c31 (single isomer, unassigned; enantiomer 1) [Example 33, (+)-4-chloro-3-ethyl-2-methyl-7-{3-[(naphthalen-1-yl)oxy]propyl}-15-(trifluoromethyl)-2,10,11,12,13,15-hexahydropyrazolo[4′,3′:9,10][1,6]oxazacycloundecino[8,7,6-hi]indole-8-carboxylic Acid—N-ethylethanamine Salt (Enantiomer 1)]
[1]
  pIC50: 5.82
[2]
  pIC50: 5.43
[3]; [5]
  pIC50: 5.16

## CCc1c2c(nn1C)C(CCC1CCOCC1)OCCCCn1c(C(=O)O)c(CCCOc3cccc4cc(F)ccc34)c3ccc(Cl)c-2c31 (single isomer, unassigned; enantiomer 1) [Example 63, (+)-4-chloro-3-ethyl-7-{3-[(6-fluoronaphthalen-1-yl)oxy]propyl}-2-methyl-15-[2-(oxan-4-yl)ethyl]-2,10,11,12,13,15-hexahydropyrazolo[4′,3′:9,10][1,6]oxazacycloundecino[8,7,6-hi]indole-8-carboxylic Acid—N-ethylethanamine Salt (Enantiomer 1)]
[1]
  pIC50: 7.85
[2]
  pIC50: 7.17
[3]; [5]
  pIC50: 7.70

## CCc1c2c(nn1C)C(CCN1CCOCC1)OCCCCn1c(C(=O)O)c(CCCOc3cccc4ccccc34)c3ccc(F)c-2c31 (single isomer, unassigned; enantiomer 1) [Example 11, 3-ethyl-4-fluoro-2-methyl-15-[2-(morpholin-4-yl)ethyl]-7-{3-[(naphthalen-1-yl)oxy]propyl}-2,10,11,12,13,15-hexahydropyrazolo[4′,3′:9,10][1,6]oxazacycloundecino[8,7,6-hi]indole-8-carboxylic Acid—N-ethylethanamine Salt (Enantiomer 1)]
[1]; uM
  IC50: > 30 µM
[2]
  pIC50: 6.60
[3]; [5]
  pIC50: 6.80

## Cc1c2c(nn1C)C(C1CC1)OCCCCn1c(C(=O)O)c(CCCOc3cccc4ccccc34)c3ccc(Cl)c-2c31 (single isomer, unassigned; enantiomer 1) [Example 35, (+)-4-chloro-15-cyclopropyl-2,3-dimethyl-7-{3-[(naphthalen-1-yl)oxy]propyl}-2,10,11,12,13,15-hexahydropyrazolo[4′,3′:9,10][1,6]oxazacycloundecino[8,7,6-hi]indole-8-carboxylic Acid N-ethylethanamine Salt (Enantiomer 1)]
[1]
  pIC50: 5.79
[2]
  pIC50: 5.17
[3]; [5]
  pIC50: 5.43

## Cc1c2c(nn1C)C(CCN1CCOCC1)OCCCCn1c(C(=O)O)c(CCCOc3cccc4cc(F)ccc34)c3ccc(F)c-2c31 (single isomer, unassigned; enantiomer 1) [Example 20, 4-fluoro-7-{3-[(6-fluoronaphthalen-1-yl)oxy]propyl}-2,3-dimethyl-15-[2-(morpholin-4-yl)ethyl]-2,10,11,12,13,15-hexahydropyrazolo[4′,3′:9,10][1,6]oxazacycloundecino[8,7,6-hi]indole-8-carboxylic Acid—N-ethylethanamine (Enantiomer 1)]
[1]
  pIC50: 7.00
[2]; Homo sapiens, SU-DHL10, 5 h
  pIC50: 7.39
[3]; [6]
  pIC50: 7.02

## CCc1c2c(nn1C)C(C(F)(F)F)OCCCCn1c(C(=O)O)c(CCCOc3cccc4ccccc34)c3ccc(Cl)c-2c31 (racemic) [Example 27, (rac)-4-Chloro-3-ethyl-2-methyl-7-{3-[(naphthalen-1-yl)oxy]propyl}-15-(trifluoromethyl)-2,10,11,12,13,15-hexahydropyrazolo[4′,3′:9,10][1,6]oxazacycloundecino[8,7,6-hi]indole-8-carboxylic Acid]
[1]
  pIC50: 5.71
[2]; Homo sapiens, SU-DHL10, 5 h
  pIC50: 5.02
[3]; [4]
  pIC50: 4.92

## CCc1c2c(nn1C)C(CCN1CCOCC1)OCCCCn1c(C(=O)O)c(CCCOc3cccc4cc(F)ccc34)c3ccc(F)c-2c31 (single isomer, unassigned; enantiomer 1) [Example 50, (+)-3-ethyl-4-fluoro-7-{3-[(6-fluoronaphthalen-1-yl)oxy]propyl}-2-methyl-15-[2-(morpholin-4-yl)ethyl]-2,10,11,12,13,15-hexahydropyrazolo[4′,3′:9,10][1,6]oxazacycloundecino[8,7,6-hi]indole-8-carboxylic Acid (Enantiomer 1)]
[1]
  pIC50: 7.43
[2]
  pIC50: 7.57
[3]; [7]
  pIC50: 7.18

## Cc1c2c(nn1C)C(CCN1CCOCC1)OCCCCn1c(C(=O)O)c(CCCOc3cccc4ccccc34)c3ccc(Cl)c-2c31 (single isomer, unassigned; enantiomer 1) [Example 14, 4-chloro-2,3-dimethyl-15-[2-(morpholin-4-yl)ethyl]-7-{3-[(naphthalen-1-yl)oxy]propyl}-2,10,11,12,13,15-hexahydropyrazolo[4′,3′:9,10][1,6]oxazacycloundecino[8,7,6-hi]indole-8-carboxylic Acid (Enantiomer 1)]
[1]
  pIC50: 7.08
[2]
  pIC50: 7.47
[3]; [7]
  pIC50: 7.37

## Cc1c2c(nn1C)C(C1CC1)OCCCCn1c(C(=O)O)c(CCCOc3cccc4ccccc34)c3ccc(Cl)c-2c31 (racemic) [Example 28, (rac)-4-Chloro-15-cyclopropyl-2,3-dimethyl-7-{3-[(naphthalen-1-yl)oxy]propyl}-2,10,11,12,13,15-hexahydropyrazolo[4′,3′:9,10][1,6]oxazacycloundecino[8,7,6-hi]indole-8-carboxylic Acid]
[1]
  pIC50: 5.63
[2]; Homo sapiens, SU-DHL10, 5 h
  pIC50: 5.08
[3]; [4]
  pIC50: 4.96

## Cc1c2c(nn1C)C(CCN1CCOCC1)OCCCCn1c(C(=O)O)c(CCCOc3cccc4cc(F)ccc34)c3ccc(Cl)c-2c31 (single isomer, unassigned; enantiomer 1) [Example 17, 4-chloro-7-{3-[(6-fluoronaphthalen-1-yl)oxy]propyl}-2,3-dimethyl-15-[2-(morpholin-4-yl)ethyl]-2,10,11,12,13,15-hexahydropyrazolo[4′,3′:9,10][1,6]oxazacycloundecino[8,7,6-hi]indole-8-carboxylic Acid—N-ethylethanamine (Enantiomer 1)]
[1]
  pIC50: 7.45
[2]; Homo sapiens, SU-DHL10, 5 h
  pIC50: 8.03
[3]; [6]
  pIC50: 7.55

## CCc1c2c(nn1C)C(CCN1CCC(F)(F)C1)OCCCCn1c(C(=O)O)c(CCCOc3cccc4cc(F)ccc34)c3ccc(Cl)c-2c31 (single isomer, unassigned; enantiomer 2) [Example 57, 4-chloro-15-[2-(3,3-difluoropyrrolidin-1-yl)ethyl]-3-ethyl-7-{3-[(6-fluoronaphthalen-1-yl)oxy]propyl}-2-methyl-2,10,11,12,13,15-hexahydropyrazolo[4′,3′:9,10][1,6]oxazacycloundecino[8,7,6-hi]indole-8-carboxylic Acid N-ethylethanamine Salt (Enantiomer 2)]
[2]
  pIC50: 5.00
[3]; [5]
  pIC50: 5.34
